Source: patent US8859529B2, “Compounds for the treatment of inflammatory disorders” (Merck Sharp & Dohme Corp., priority 2008, dated 2014)

Assays:
[1] = Area under the curve determinations of plasma levels in rats (rrAUC); format: in vivo; settings: rapid rat AUC of the drug (parent) in plasma; oral 10 mg/kg, fasted rats, blood 0.5-6 h post-dosing
Method: To gain insight into the pharmacokinetic properties of the compounds of formula (I), plasma levels of the compounds in rats were determined according to the protocol described in Korfmacher, W. A,; Cox, K. A.; Ng, K. J.; Veals, J.; Hsieh, Y.; Wainhaus, S.; Broske, L; Prelusky, D.; Nomeir, A.; White, R. E. Rapid Commun. Mass Spectrorn, 2001, 15, 335. Briefly, rats, after an overnight fast, were dosed orally with the test compound at a dose of 10 mg/kg in a 5 mL/kg dose volume. Blood was collected at 0.5, 1, 2, 3, 4, and 6 h post-dosing. Mass spectrometry using high performance liquid chromatography was used to identify and measure the concentrations of the test compounds in the plasma at the various time points. The parent ion of each test compound was used to identify and quantitate the compounds in plasma.

[2] = system: TNF-α production from human whole blood; test: Inhibition of TNF-α production from human whole blood (hWBA); format: cell-based; settings: human whole blood diluted 1:1, 1 h pre-incubation, LPS, 3.5 h, TNF-α by ELISA; N/A = Not Active
Method: The compounds' ability to inhibit TACE activity can also be determined in human whole blood using the assay conditions described n Example 15 below.
Human whole blood was diluted 1:1 with serum free medium (RPMI, L-glutamine, Pen-Strep, HEPES) and incubated with a test compound in a final volume of 360 μl for 1 h at 37° C. Forty microliters of LPS (10 μg/mL) was then added. Supernatant was collected after 3.5 h incubation and the concentration of TNF-α was determined by ELISA (R&D Systems). The concentration of the test compound which inhibits 50% of the amount of TNF-α from the untreated control was determined.

SMILES	PK (rrAUC) parent [1]	IC50 [2] [nM]
COc1ccc2c(c1)C(=O)N(C[C@@]1(c3cc4cnccc4o3)NC(=O)N(COC(=O)OCC3COCO3)C1=O)C2 (stereo partly shown) [Compound 63.1]	0 nM·h	449
COc1ccc2c(c1)C(=O)N(C[C@@]1(C#Cc3ccc(N4CCNCC4)cc3)NC(=O)N(COC(=O)C(C)(C)C)C1=O)C2 [Compound 25]	0 nM·h	212
COc1ccc2c(c1)C(=O)N(C[C@@]1(c3cc4cnccc4o3)NC(=O)N(COC(=O)OC(C)C)C1=O)C2 [Compound 62]	0 nM·h	250
COc1ccc2c(c1)C(=O)N(C[C@@]1(C#Cc3ccc4c(=O)[nH][nH]c4c3)NC(=O)N(COC(=O)C(C)(C)C)C1=O)C2 [Compound 13]	0 nM·h	213
COc1ccc2c(c1F)C(=O)N(C[C@@]1(c3cc4nc(N5CCC5=O)ccc4o3)NC(=O)N(COC(=O)C(C)(C)C)C1=O)C2 [Compound 6]	2283 nM·h	447
COc1ccc2c(c1)C(=O)N(C[C@@]1(c3cc4cnccc4o3)NC(=O)N(COC(=O)OCCN(C)C)C1=O)C2 [Compound 63.4]	1604 nM·h	427
COc1ccc2c(c1)C(=O)N(C[C@]1(c3cc4cnccc4o3)C(=O)N(COC(=O)c3ccccc3OC(C)=O)C(=O)N1C(C)=O)C2 [Compound 83]	0 nM·h	931
COc1ccc2c(c1)C(=O)N(C[C@@]1(c3cc4cnccc4o3)NC(=O)N(COC(=O)c3cccnc3)C1=O)C2 [Compound 67]	3448 nM·h	504
CCOC(=O)[C@H](C)OC(=O)OCN1C(=O)N[C@@](CN2Cc3ccc(OC)cc3C2=O)(c2cc3cnccc3o2)C1=O [Compound 63.2]	0 nM·h	738
COc1ccc2c(c1F)C(=O)N(C[C@@]1(c3cc4cc5c(c(F)c4o3)C(=O)NC5)NC(=O)N(COC(=O)c3ccccc3)C1=O)C2 [Compound 64]	5393 nM·h	169
COc1ccc2c(c1)C(=O)N(C[C@@]1(C#Cc3ccc(-c4nc(-c5cnn(C)c5)ccc4OC(=O)C(C)(C)C)cc3)NC(=O)N(COC(=O)C(C)(C)C)C1=O)C2 [Compound 43]	0 nM·h	336
COc1ccc2c(c1F)C(=O)N(C[C@@]1(c3cc4cnc(C)cc4o3)NC(=O)N(COC(=O)C(C)(C)C)C1=O)C2 [Compound 12]	45,213 nM · h	187
COc1ccc2c(c1F)C(=O)N(C[C@@]1(c3cc4nc(N5C[C@@H](O)CC5=O)ccc4o3)NC(=O)N(COC(=O)C(C)(C)C)C1=O)C2 [Compound 38]	1736 nM·h	94
COc1ccc2c(c1F)C(=O)N(C[C@@]1(C#Cc3ccc(-c4nc(-c5cnn(C)c5)ccc4OC(=O)C(C)(C)C)c(F)c3)NC(=O)N(COC(=O)C(C)(C)C)C1=O)C2 [Compound 44]	0 nM·h	281
COc1ccc2c(c1)C(=O)N(C[C@@]1(c3cc4cnccc4o3)NC(=O)N(COC(=O)N3CCN(C)CC3)C1=O)C2 [Compound 68]	13539 nM·h	1310
COc1ccc2c(c1F)C(=O)N(C[C@@]1(c3cc4nc(N5C[C@H](O)CC5=O)ccc4o3)NC(=O)N(COC(=O)C(C)(C)C)C1=O)C2 [Compound 37]	0 nM·h	148
COc1ccc2c(c1)C(=O)N(C[C@@]1(C#Cc3ccc(C(N)=O)cc3)NC(=O)N(COC(=O)C(C)(C)C)C1=O)C2 [Compound 15]	0 nM·h	188

Next, values leading:

PK (rrAUC) parent [1]	IC50 [2] [nM]	SMILES
0 nM·h	156	COc1ccc2c(c1)C(=O)N(C[C@@]1(c3cc4nc(N5CCNCC5)ccc4o3)NC(=O)N(COC(=O)C(C)(C)C)C1=O)C2 [Compound 28]
94 nM·h	1330	COc1ccc2c(c1)C(=O)N(C[C@@]1(c3cc4nc(Nc5cccnc5)ccc4o3)NC(=O)N(COC(=O)C(C)(C)C)C1=O)C2 [Compound 34]
13539 nM·h	273	COc1ccc2c(c1)C(=O)N(C[C@@]1(c3cc4cnccc4o3)NC(=O)N(COC(=O)C(C)(C)C)C1=O)C2 [Compound 2]
8621 nM·h	92	COc1ccc2c(c1F)C(=O)N(C[C@@]1(c3cc4nc(N5CCN(C)CC5)ccc4o3)NC(=O)N(COC(=O)C(C)(C)C)C1=O)C2 [Compound 4]
655 nM·h	176	CCN1CCN(c2ccc3oc([C@]4(CN5Cc6ccc(OC)cc6C5=O)NC(=O)N(COC(=O)C(C)(C)C)C4=O)cc3n2)CC1 [Compound 24]
0 nM·h	645	COc1ccc2c(c1)C(=O)N(C[C@@]1(c3cc4nc(NS(C)(=O)=O)ccc4o3)NC(=O)N(COC(=O)C(C)(C)C)C1=O)C2 [Compound 26]
2684 nM·h	339	COc1ccc2c(c1)C(=O)N(C[C@@]1(c3cc4nc(N5CC[C@@H](O)C5)ccc4o3)NC(=O)N(COC(=O)C(C)(C)C)C1=O)C2 [Compound 21]
19953 nM·h	61	CCN1CCN(c2ccc3oc([C@]4(CN5Cc6ccc(OC)c(F)c6C5=O)NC(=O)N(COC(=O)C(C)(C)C)C4=O)cc3n2)CC1 [Compound 3]
334 nM·h	224	COc1ccc2c(c1)C(=O)N(C[C@@]1(c3cc4nc(N5C[C@H](O)CC5=O)ccc4o3)NC(=O)N(COC(=O)C(C)(C)C)C1=O)C2 [Compound 31]
